From US12043621B2, “Small molecule inhibitors of Interleukin-4” (Trustees of Boston University, priority 2020, dated 2024) come the findings set out here.

Where two headings read alike, the source gives them in different places.

The target of one assay is T1, IL-4 (Homo sapiens, UniProt P05112).
T1 construct: purchased Acros Biosystems IL4-H4218; host or cells: HEK-293
T1 sequence (P05112 25-153): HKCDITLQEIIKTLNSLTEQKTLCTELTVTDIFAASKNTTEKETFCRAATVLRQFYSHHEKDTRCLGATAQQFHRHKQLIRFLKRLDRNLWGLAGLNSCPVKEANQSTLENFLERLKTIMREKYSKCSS
Kind of assay: HEK-Blue IL-4/IL-13 cell-based reporter (SEAP) IL-4 inhibition assay. As to conditions: for Activity at 1 uM / Activity at 10 uM: percent activity in HEK-Blue IL-4/IL-13, in %; for reduction of IL-4 activity: at 50 μM, normalized to IL-4 with vehicle. The procedure: HEK-Blue IL-4/IL-13 cells were purchased from Invivogen and maintained in DMEM complete with 10% fetal bovine serum, 10 μg/ml of blasticidin and 100 μg/ml of Zeocin, 100 μg/mL Normocin, and 100 U/mL-100 μg/mL Pen-Strep. Cells used for assays were between passages 12 and 18. […] HEK-Blue IL-4/IL-13 cells were trypsinized, spun down, and resuspended in DMEM with 10% heat-inactivated FBS, and 100 U/mL-100 μg/mL Pen-Strep at a concentration of 3.125E5/mL. 160 μL of the cell suspension was added to each well of a 96 well plate, avoiding the edges of the plate and equilibrated in an incubator for 1 hour. After 2 hours, 40 μL of the small molecule/IL-4 solution was added to each well. Each measurement performed in quadruplicate. Cells were incubated for 20 hours at 37° C./5% CO2. Quanti-Blue was prepared according to manufacture and 160 μL added to each well of a 96 well plate, avoiding edges. 40 μL of cell supernatant was added to each well and then incubated for 3 hours at 37° C. The optical density was then read at 650 nm with a Molecular Devices SpectraMax M5 Microplate Reader. Data was plotted and analyzed in GraphPad Prism 8.
HEK-Blue IL-4/IL-13 cells were purchased from Invivogen and maintained in DMEM complete with 10% fetal bovine serum, 10 μg/ml of blasticidin and 100 μg/ml of Zeocin, 100 μg/mL Normocin, and 100 U/mL-100 μg/mL Pen-Strep. Cells used for assays were between passages 12 and 18. Prior to screening small molecules, the SEAP production induced by IL-4 alone was tested in the cells (FIG. 13) and determined to be 0.3 ng/mL. The EC25 for the IL-4 induced SEAP production (0.1 ng/mL final well concentration) was chosen for running small molecule inhibition assays.
(§1) For screening small molecules, 25 µL of each molecule (FIG. 9) in DMEM with 4% DMSO was added to 25 μL of 1 ng/ml IL-4 in DMEM and incubated for 2 hours at 37° C. HEK-Blue IL-4/IL-13 cells were trypsinized, spun down, and resuspended in DMEM with 10% heat-inactivated FBS, and 100 U/mL-100 μg/mL Pen-Strep at a concentration of 3.125E5/mL. 160 μL of the cell suspension was added to each well of a 96 well plate, avoiding the edges of the plate and equilibrated in an incubator for 1 hour. After 2 hours, 40 μL of the small molecule/IL-4 solution was added to each well. Each measurement was performed in […]. Cells were incubated for 20 hours at 37° C./5% CO2. Quanti-Blue was prepared according to manufacture and 160 μL added to each well of a 96 well plate, avoiding edges. 40 μL of cell supernatant was added to each well and then incubated for 3 hours at 37° C. The optical density was then read at 650 nm with a Molecular Devices SpectraMax M5 Microplate Reader. Data was plotted and analyzed in GraphPad Prism 8.
HEK-Blue IL-4/IL-13 cells used to screen analogs of compound 52 from ACS Chemical Biology paper (also referred to herein as D9). Assay was run as described in Examples 2 and 3. All compounds were screened at 10 μM, 1 μM, and 250 nM in quadruplicate. The results are depicted in FIGS. 17-21.

Another assay has as its system >25 other proteins. The assay can be described thus: SMM binding signatures versus >25 unrelated proteins. As to conditions: compared to SMM binding signatures for >25 other proteins. The source says:
[formula] Where SNRi is the SNR value for a given feature, Mdn(SNR) is the median of the SNR values for all features in the subarray, and the MAD(SNR) is the […] absolute deviation of the SNR values for all features in the subarray. Assay positives with an average robust Z score greater than 1.645 (alpha=0.05) on duplicate slides were compared to both a counter screen for the detection antibody and a database representing >25 unique targets screened by SMM against the same chemical library to filter nonspecific binders. DSF

For assay [1], the system named is HEK-Blue IL-4/IL-13 cells. The assay can be described thus: HEK-Blue IL-4/IL-13 control: compounds alone without IL-4 (SEAP). The class given is cell-based. Particulars: cells with 100 μM compound, no IL-4. The method, then:
as §1, with “For screening small molecules, 25 µL of each molecule (FIG. 9) in DMEM with 4% DMSO was added to 25 μL of 1 ng/ml IL-4 in DMEM and incubated for 2 hours at 37° C.” left out

[2] abbreviates: Example 2, quadruplicate, read-out: EC50 of IL-4 inhibition in HEK-Blue IL-4/IL-13 cells.
Setting [3] is: Example 3, triplicate, read-out: EC50 of IL-4 inhibition in HEK-Blue IL-4/IL-13 cells.

For the molecule `N#Cc1c(-c2ccc(O)c(O)c2)cc(-c2ccc(F)cc2)nc1N` [Compound 1, 2-amino-4-(3,4-dihydroxyphenyl)-6-(4-fluorophenyl)-nicotinonitrile], the “Activity at 1 uM” value on IL-4 came to 71.73. Moreover, the “Activity at 10 uM” value on IL-4 is given as 2.405. Besides, the EC50 at IL-4 (setting [2]) stood at 45.6 µM; on IL-4 (setting [3]) it was 40 µM; on IL-4 (Table 3, read-out: EC50) it was 1.56 µM. Besides, the “reduction of IL-4 activity” value on IL-4 amounted to 88.6%. In the assay with >25 other proteins, the SMM binding selectivity entry is “only bound to IL-4”. In assay [1], this molecule returned an Abs650 of 0.0955 ± 0.0072.
Regarding `N#Cc1c(-c2ccc(O)c(O)c2)cc(-c2ccc(F)cc2)nc1N` [Compound 2], at IL-4, the “Activity at 1 uM” value worked out at 64.46 and the “Activity at 10 uM” value is given as 4.2.
On to `N#Cc1c(-c2cc(O)c(O)c(O)c2)cc(-c2ccc(F)cc2)nc1N` [Compound 5], for which, on IL-4, the “Activity at 1 uM” value amounted to 84.76 and the “Activity at 10 uM” value worked out at 93.86.
Consider `Cc1ccc(-c2cc(-c3ccc(F)cc3)nc(N)c2C#N)o1` [Compound 9], for which, at IL-4, the “Activity at 1 uM” value stood at 77.98 and the “Activity at 10 uM” value was 66.06.
For `Cc1ccc(-c2cc(-c3ccc(F)cc3)nc(N)c2C#N)s1` [Compound 11], at IL-4, the “Activity at 1 uM” value turned out to be 69.98 and the “Activity at 10 uM” value was determined as 62.48.
Turning to `N#Cc1c(-c2ccccc2O)cc(-c2ccc(F)cc2)nc1N` [Compound 15], at IL-4, the “Activity at 1 uM” value stood at 51.3773 and the “Activity at 10 uM” value amounted to 1.218.
As for `N#Cc1c(-c2ccc(O)cc2)cc(-c2ccc(F)cc2)nc1N` [Compound 17], at IL-4, the “Activity at 1 uM” value came out at 99.0184 and the “Activity at 10 uM” value is recorded as 52.77.
As for `COc1ccc(-c2cc(-c3cccnc3)nc(N)c2C#N)cc1O` [Compound 25], the EC50 was 21.7 µM at IL-4 (setting [2]) and 7.6 µM on IL-4 (setting [3]). At IL-4, the “reduction of IL-4 activity” value worked out at 84.3%. Further, the SMM binding selectivity entry in the assay with >25 other proteins is on record as “only bound to IL-4”. This molecule also yielded an Abs650 in assay [1] of 0.0648 ± 0.0012.
Consider `COc1ccc(-c2cc(-c3ccc(OC)c(O)c3)c(C#N)c(N)n2)cc1` [Compound 30], for which, on IL-4, the “Activity at 1 uM” value turned out to be 64.45 and the “Activity at 10 uM” value stood at 28.76. At IL-4 (Table 3, read-out: EC50), the EC50 came to 3.88 µM.
Regarding `COc1ccc(-c2cc(-c3ccc(Cl)c(Cl)c3)c(C#N)c(=O)[nH]2)cc1` [Compound 32], at IL-4, the “Activity at 1 uM” value came to 51.3 and the “Activity at 10 uM” value was 55.85.
On to `COc1ccc(-c2cc(-c3ccccc3)c(C#N)c(=O)[nH]2)cc1` [Compound 34], for which, at IL-4, the “Activity at 1 uM” value amounted to 73.09 and the “Activity at 10 uM” value amounted to 72.43.
As for `COc1ccc(-c2cc(C3CCCOC3)c(C#N)c(=O)[nH]2)cc1` (stereo not shown) [Compound 36], on IL-4, the “Activity at 1 uM” value worked out at 71.59 and the “Activity at 10 uM” value came out at 68.36.
As for `COc1ccc(-c2cc(-c3ccc(C)o3)c(C#N)c(=O)[nH]2)cc1` [Compound 37], on IL-4, the “Activity at 1 uM” value amounted to 89.04 and the “Activity at 10 uM” value is recorded as 99.52.
For the molecule `COc1ccc(-c2cc(-c3ccc4ccccc4c3)c(C#N)c(=O)[nH]2)cc1` [Compound 41], on IL-4, the “Activity at 1 uM” value amounted to 62.288 and the “Activity at 10 uM” value was determined as 48.23.
Regarding `COc1ccc(-c2cc(-c3ccccc3O)c(C#N)c(=O)[nH]2)cc1` [Compound 42], at IL-4, the “Activity at 1 uM” value is 33.675 and the “Activity at 10 uM” value was −0.3167.
`COc1ccc(-c2cc(-c3cccc(O)c3)c(C#N)c(=O)[nH]2)cc1` [Compound 43]: at IL-4, the “Activity at 1 uM” value was found to be 112.2 and the “Activity at 10 uM” value turned out to be 35.73.
For `COc1ccc(-c2cc(-c3ccc(O)cc3)c(C#N)c(=O)[nH]2)cc1` [Compound 44], at IL-4, the “Activity at 1 uM” value amounted to 33.62 and the “Activity at 10 uM” value came to 39.28.
Turning to `COc1ccc(-c2cc(-c3ccc(O)c(OC)c3)c(C#N)c(=O)[nH]2)cc1` [Compound 45], on IL-4, the “Activity at 1 uM” value is listed as 80.34 and the “Activity at 10 uM” value is −2.843.
The like results for `COc1ccc(-c2cc(-c3ccc(OC)c(O)c3)c(C#N)c(=O)[nH]2)cc1` [Compound 46] were, in that order, 17.94 and 13.16.
On to `COc1ccc(-c2cc(-c3ccc(-c4ccccc4)cc3)[nH]c(=O)c2C#N)cc1O` [Compound 53], for which, on IL-4, the “Activity at 1 uM” value was found to be 17.656 and the “Activity at 10 uM” value was found to be 30.26.
As for `N#Cc1c(-c2ccc(O)c(O)c2)cc(-c2ccc(N3CCCCC3)cc2)[nH]c1=O` [Compound 56], at IL-4, the “Activity at 1 uM” value turned out to be 81.52 and the “Activity at 10 uM” value came out at 11.84.
On to `Cn1ccc(-c2cc(-c3cccc(O)c3)c(C#N)c(=O)[nH]2)c1` [Compound 57], for which, at IL-4, the “Activity at 1 uM” value was 94.4121 and the “Activity at 10 uM” value is on record as 75.91.
For `Cc1cc(-c2cc(-c3cccc(O)c3)c(C#N)c(=O)[nH]2)c(C)s1` [Compound 58], in that order: 85.76 and 39.79.
With `N#Cc1c(-c2cccc(O)c2)cc(-c2cc(F)c(F)c(F)c2)[nH]c1=O` [Compound 59], at IL-4, the “Activity at 1 uM” value is 88.75 and the “Activity at 10 uM” value worked out at 32.37.
For `COc1nc(-c2ccccc2)cc(-c2ccccc2)c1C#N` [Compound 61], in that order: 96.92 and 39.64.
In the case of `COc1ccc(-c2cc(-c3ccccc3)nc(Br)c2C#N)cc1` [Compound 62], on IL-4, the “Activity at 1 uM” value is reported as 96.31 and the “Activity at 10 uM” value is 38.63.
In the case of `N#Cc1c(-c2ccccc2)cc(-c2ccccc2)nc1N1CCCCC1` [Compound 63], at IL-4, the “Activity at 1 uM” value was found to be 95.46 and the “Activity at 10 uM” value was found to be 40.44.
`COc1ccc(-c2cc(-c3ccccc3)c(C#N)c(S)n2)cc1` [Compound 64]: on IL-4, the “Activity at 1 uM” value is on record as 17.08 and the “Activity at 10 uM” value was determined as 16.53.
For `COc1ccc(-c2cc(-c3ccccc3)c(C#N)c(SC)n2)cc1` [Compound 65], at IL-4, the “Activity at 1 uM” value was 95.33 and the “Activity at 10 uM” value is 20.54.
The like results for `COc1ccc(-c2cc(-c3ccc(O)cc3)c(C#N)c(SC)n2)c(OC)c1` [Compound 66] were, in that order, 87.86 and 21.21.
